{
  "source": "paper PMC7395176",
  "about": "“Retromer stabilization results in neuroprotection in a model of Amyotrophic Lateral Sclerosis” (Nature Communications, 2020)",
  "key": {"[1]": {"target": "T1, VPS29 (Mus musculus, UniProt Q9QZ88)", "T1 construct": "endogenous in cells; host or cells: Neuro2a (ATCC CCL-131)", "test": "Western blot for VPS29 in treated Neuro2a cells", "format": "cell-based", "settings": "10 µM, 48 h, WB", "description": "Compound 2a increases VPS26b and VPS29 in Neuro2a […]\na,WBs forVPS26b, VPS29 and β-Tubulin in vehicle- and compound 2a-treated Neuro2a cells(10 μM, 48h, 3x10^5 cells/well).Quantitative analyses of blots (means ± SD) are shown inhistograms (control:n=4 independent wells, 2a: n=5 independent wells examined in one experiment, p<0.0001 for all the comparisons. Two-tailed Student’s test was used to determine the statisticalsignificanceof data, ***p<0.0001\n(1 picture or pasted object on this page, not shown here)"}, "[2]": {"system": "Mouse cortical neurons (E16.5)", "test": "Micro Electrode Array (MEA) recording of neuronal firing", "format": "cell-based", "description": "We assessed the cytotoxicity of compound 2a, measuring survival of Neuro2a cells exposed to increasing 2a concentrations. […] We next checked for toxic effects of compound 2a in primary neuronal cultures coupled with Micro Electrode Array (MEA) devices. Mouse cortical neurons (E16.5) were plated on MEAs, kept in culture for 14 days to develop firing activity and recorded in presence of 2a.\nPrimary neuronal cultures were established from the cerebral cortex of E16.5 C57BL6J embryos. Upon dissection, cells were plated on MEA biochips (60 electrode MEA biochips with 200 µm electrode spacing and 30 µm electrodes diameter with an integrated reference electrode, Multichannel Systems GmbH) at the density of 3 × 10^5 cells/MEA and kept in Neurobasal medium supplemented with B27 for 14 days. At day 14 neuronal cultures were exposed to increasing concentration of compound 2a (1, 3, 10, 30, and 100 µM) in Krebs–Ringer–Hepes buffer (KRH, 130 mM NaCl, 5 mM KCl, 1.2 mM KH2PO4, 1.2 mM MgSO4, 2 mM CaCl2, 25 mM Hepes, 0.6% glucose, 1% glutamine, Sigma–Aldrich). Firing activity was recorded using a pre-amplifier stage (MEA-1060-Inv-BC-Standard, gain: 55, bandwidth: 300 Hz–8 kHz, MCS GmbH), an amplification and filtering stage (FA64S, gain 20, bandwidth: 10 Hz–8 kHz, MCS GmbH) and a data acquisition device (sampling frequency: 25 kHz). Then, off-line signal processing was performed, and raw data were analyzed by MC-Rack Software version 4.6.2 (MCS GmbH).\nPanels a and b; neuronal activityfrom the same electrode of a representative MEA biochip (3x105 cortical neurons/chip, n=5 independent chips from 2 independent experiments) treated with 2a, at the concentration of 1 µM (a) and 100 µM (b). Neurons received increasing amounts of lead 2a (1,3, 10, 30 and 100 µM) and were recorded every 5 min; c, quantifications of the firing activityreported as fold changes of spike numbers (box plots show median values; whiskers show 10-90 percentile) measured at the concentration of 1\nµM. Kruskal-Wallis testfollowed by Dunn’s multiple comparison test was used to analyze the […]"}, "[3]": {"system": "SOD1^G93A-transfected Neuro2a cells", "test": "Lyso-tracker analysis of lysosomes in SOD1G93A-transfected Neuro2a cells", "format": "cell-based", "settings": "24 h starvation, 10µM", "description": "Lysosomal alterations are early events in ALS[7],[56]. We speculated that an impairment of the retromer should alter protease trafficking via CI-MPR, and therefore disrupt lysosomal homeostasis. […] We transfected Neuro2a cells with plasmids encoding the Sh56-RNAi to downregulate VPS35. After 24 h of starvation, we analyzed the lysosomes using Lyso-tracker[58]. We observed enlarged and abnormally distributed lysosomes in cells with VPS35 interference by Sh56 (Supplementary Fig. 12a–c). […] We asked whether the overexpression of SOD1^G93A would also result in similar lysosomal alterations by transfecting Neuro2a cells with plasmids encoding SOD1^G93A, with or without compound 2a.\nVPS35 knockdown impairs lysosomal stability\nPanels a and b, Neuro2a cells (4x10^4cells/well) transfected with the scramble plasmid (0.5 µg/well, a)or with the VPS35 RNAi plasmids (Sh56, 0.5 µg/well, b) along with plasmid encoding the GFP (0.1 µg/well) and labelled with Lyso-tracker (75 nM). Quantifications of Lyso Tracker-covered areas (%± SD) in individual GFP+ cells were done on merged confocal images and data are shown in c (scramble: n=52 cells, Sh56: n=39 cells, data are collected from 3 independent experiments, p<0.0001). Protein lysates from Neuro2a cells (3x10^5 cells/well) receiving scramble or Sh56 plasmids (2 µg/well for 48h) were labelled for Ubiquitin and β-Actin (d). […]"}, "[4]": {"system": "Sortilin", "test": "Sortilin fluorescence in MNs of treated G93A mice", "format": "in vivo", "settings": "10 mg/kg, day 100", "from_the_text": "We next asked whether increasing VPS35/26 protein levels is sufficient to increase retromer functionality. CI-MPR is unstable in VPS26-knockout cells, and we observed a substantial reduction of CI-MPR MFI levels in MNs of vehicle-treated G93A mice compared with WT litters (Fig. 6c). […] Sortilin encodes a receptor belonging to the Vps10 family involved in Frontotemporal Dementia (FTD)[45], which shares functional homologies with MPRs and is another retromer cargo[46].\nFluorescence intensity levels of VPS35, VPS26, CI-MPR, Sortilin, CTSD and Ubiquitin were calculated using NHI-Image J software (US National Institutes of Health) according to the following protocol: stacks of confocal images were used to generate the maximal projections using the Leica Application Suite X (2.0.0.14332) software and then postprocessed by NHI-Image J to crop single NeuN^+ MNs from the ventral horn of the spinal cord. We next performed background (calculated on adjacent slices only receiving secondary antibodies) subtraction for each channel, before applying the NHI-Image J mean filter (with radius 2.0 pixels) to calculate mean NeuN fluorescence levels in individual MNs. Using this approach, we established a region of interest (ROI) to gate single MNs. On this ROI, we measured mean fluoresce levels (MFI) of target proteins."}},
  "data": [
    {"smiles": "NC(N)=N/N=C/c1cccc(/C=N/N=C(N)N)c1", "note": "[compound 2a, phenyl-1,3-bis-guanylhydrazone]", "values": [
      {"measurement": "VPS29 protein levels", "setting": "[1]", "result": "significantly increased"},
      {"measurement": "neuronal firing", "setting": "[2]; 10µM", "result": "does not perturb neuronal firing"},
      {"measurement": "neuronal firing (spikes)", "setting": "[2]; 100 μM of 2a", "result": "slight reduction of spikes"},
      {"measurement": "neuronal firing", "setting": "[2]; low concentrations of 2a", "result": "did not alter neuronal firing"},
      {"measurement": "enlarged lysosomes (Lyso-tracker)", "setting": "[3]", "result": "significantly reverted this phenotype"},
      {"measurement": "Sortilin MFI levels in MNs", "setting": "[4]", "result": "significantly increased"}
    ]}
  ]
}
